Source: US9375436B2, “Androgen treatment in females” (priority 2004, dated 2016)
Values joined by “and” are separate entries in the source; they are usually repeats but may differ in a detail not shown here. Identical values can stand only once.

Experiments:
[1] = system: patients with evidence of decreased ovarian reserve; test: IVF cycles before and after DHEA treatment (Example 2); type: in vivo, human
Method: Cumulative embryo score is determined by scoring day 3 embryos and multiplying the number of cells in the embryo by the embryo grade. Embryo grade is a judgment of the embryologist on embryo quality from 1 to 5. Most good embryos are scored 4, with 5 reserved for exceptional embryos. The grade is based on the uniformity of the cells, the color and consistency of the cytoplasm, and the amount of fragmentation. Normal embryos are less than 5% fragmented. A person with three eight cell embryos each with a grade of four would have a cumulative embryos score of 96, the product of 3×8×4.
In another study, thirty (30) patients with evidence of decreased ovarian reserve were given supplemental DHEA 25 mg three times a day, for a total of 75 mg per day, for an average of about 4 months before beginning ovulation induction for IVF. Twelve patients contributed data from cycles both pre-DHEA and post-DHEA, eleven patients contributed data from cycles only pre-DHEA, and seven patients contributed data from cycles only post-DHEA. Patients' response to ovulation induction before DHEA treatment was compared to patients' response to ovulation induction after DHEA treatment with regard to peak estradiol, oocyte production, and embryos transferred and embryo quality.

[2] = system: women waiting to go into an IVF cycle; test: Spontaneous conceptions in women on DHEA waiting to go into IVF; type: in vivo, human
Method: Additionally, with DHEA treatment, there may be an unexpectedly large number of spontaneous conceptions in women waiting to go into an IVF cycle. DHEA treatment includes administering a dose of between about 50 mg/day and about 100 mg/day, preferably between about 60 mg/day and about 80 mg/day, and in one study about 75 mg/day to a human. Particularly, the DHEA treatment may be administered to a premenopausal person with diminished ovarian function. DHEA may have an effect after about 4 consecutive weeks. However, DHEA has a more significant effect after about 8 weeks or about 2 months of administration, but its effect may continue to increase to about four months, and further may continue past four months of use. Specifically, DHEA treatment has a statistically significant effect after about at least 16 weeks or about at least 4 months of administration.
The DHEA treatment may be at least about 2 weeks before spontaneous conception occurs. In the population of women who are waiting to go into IVF, the spontaneous pregnancy rate is a fraction of about 1% per month. However, in the population of women who have been on DHEA treatment, there were 13 spontaneous pregnancies out of 60 women. As such, DHEA treatment increases spontaneous pregnancies in one study at least about 21 fold. […]

[3] = Post DHEA, 19 cycles, 16.1 ± 2.4 weeks of DHEA 75 mg per day

`C[C@]12CC[C@H](O)CC1=CC[C@@H]1[C@@H]2CC[C@]2(C)C(=O)CC[C@@H]12` [DHEA, Dehydroepiandrosterone] was tested, and the “patients with continuing pregnancies” value ([1]; 5 of 45 patients) was 11%, the “patients using DHEA who have conceived” value ([1]; 7 of 45 patients) was 16% and the “mean increase in the number of fertilized oocytes (paired comparisons)” value ([1]; 12 patients) was 1.42±0.63. For the same molecule, the “Average Day 3 embryo cell count” value ([1]; Post DHEA, 19 cycles) was 4.5 ± 0.5, the “Average Day 3 embryo grade” value ([1]; Post DHEA, 19 cycles) was 2.8 ± 0.3 and the Fertilized eggs ([1]; Post DHEA, 19 cycles) was 4.6 ± 0.8. For the same molecule, the “Number of Day 3 embryos” value ([1]; Post DHEA, 19 cycles) was 3.2 ± 0.6, the Oocytes ([1]; Post DHEA, 19 cycles) was 5.8 ± 1.0 and the “Peak Estradiol” value ([1]; Post DHEA, 19 cycles) was 1192 ± 904. For the same molecule, the Transferred embryos ([1]; Post DHEA, 19 cycles) was 2.6 ± 0.4, the Cancellation [1, 3] was 5% and the “Cancellation (cycles cancelled / cycles)” value [1, 3] was 1 of 19 and 1/19. The “Positive hCG (per transfer cycle)” value ([1]; Post DHEA, cycles after an average of 4 months of DHEA treatment) was 4/18, the “increase in cumulative embryo score” value ([1]; after versus prior to DHEA use) was “about 64” and the “improved overall embryo score, model adjusted for oocyte number” value ([1]; post versus pre DHEA) was 32.8. The “increased fertilization, model adjusted for oocyte number” value ([1]; post versus pre DHEA) was 1.93 fertilized oocytes, the “increased numbers of day-three embryos, model adjusted for oocyte number” value ([1]; post versus pre DHEA) was 1.36 embryos and the “increase of spontaneous pregnancies” value ([2]; versus fraction of about 1% per month in women waiting for IVF) was “at least 21 fold”. For the same molecule, the “spontaneous pregnancies out of 60 women” value ([2]; women on DHEA treatment) was 13.
